In patent US20230143604A1, “QW DOSING OF GIP RECEPTOR AGONIST PEPTIDE COMPOUNDS AND USES THEREOF” (TAKEDA PHARMACEUTICAL COMPANY LIMITED, priority 2020, published 2023) one finds solubility data, which are given here for five molecules.

Starred links: 1 amine or outer side, 2 acyl side, 3 side chain; linkers in the order of their positions; H or OH if unused. Non-standard residues stand in square brackets, D forms with d. Residues, ends and D or L forms follow the SMILES beside them. Groups on a side chain read outwards from the residue. *: point of attachment. C20 diacid = O=C(O)CCCCCCCCCCCCCCCCCCC(=O)*; C18 diacid = O=C(O)CCCCCCCCCCCCCCCCC(=O)*; γGlu = O=C(O)[C@H](CCC(=O)[*:2])N[*:1]; NMeY = CN[C@@H](Cc1ccc(O)cc1)C(=O)O; AEEA = NCCOCCOCC(=O)O; Aib = CC(C)(N)C(=O)O

The nature of this data set: physchem. The protocol:
Solubility of the GIPR peptides may be determined by dissolution in a phosphate buffer followed by quantitation using liquid chromatography, for example, High Performance Liquid Chromatogry (HPLC). An illustrative method is provided. For determination of the solubility of the GIPr agonist peptides, 3 mg of peptides are weighted out in a small glass vial. 100 μL of 200 mM Phosphate buffer pH 7.4 are added and the vial is sonicated/votexed as necessary for a maximum of 1 min. […] If insoluble material is observed in the tube the addition of 100 μL of buffer and mixing is repeated until complete dissolution.
3 mg of peptides are weighted out in a small glass vial. 100 uL of 200 mM Phosphate buffer pH 7.4 are added and the vial is sonicated/votexed as necessary for a maximum of 1 min. […] If insoluble material is observed in the tube the addition of 100 uL of buffer and mixing is repeated until complete dissolution.

Take `CC[C@H](C)[C@H](NC(=O)[C@H](CO)NC(=O)[C@H](Cc1ccc(O)cc1)NC(=O)[C@H](CC(=O)O)NC(=O)[C@H](CO)NC(=O)[C@@H](NC(=O)[C@H](Cc1ccccc1)NC(=O)[C@@H](NC(=O)CNC(=O)[C@H](CCC(=O)O)NC(=O)C(C)(C)NC(=O)[C@H](Cc1ccc(O)cc1)NC)[C@@H](C)O)[C@@H](C)CC)C(=O)N[C@@H](C)C(=O)N[C@@H](CCCCNC(=O)CNC(=O)CNC(=O)CNC(=O)CNC(=O)CC[C@H](NC(=O)CCCCCCCCCCCCCCCCC(=O)O)C(=O)O)C(=O)N[C@@H](CC(=O)O)C(=O)N[C@@H](CO)C(=O)NC(C)(C)C(=O)N[C@@H](C)C(=O)N[C@@H](CCC(N)=O)C(=O)NC(C)(C)C(=O)N[C@@H](CC(=O)O)C(=O)N[C@@H](Cc1ccccc1)C(=O)N[C@H](C(=O)N[C@@H](CC(N)=O)C(=O)N[C@@H](Cc1c[nH]c2ccccc12)C(=O)N[C@@H](CC(C)C)C(=O)N[C@@H](CC(C)C)C(=O)N[C@@H](C)C(=O)N[C@@H](CCC(N)=O)C(=O)N[C@@H](CCCCN)C(=O)NCC(=O)O)C(C)C` [Compound 79] (H-[NMeY][Aib]EGTFISDYSIAK([Gly-Gly-Gly-Gly-γGlu-C18 diacid])DS[Aib]AQ[Aib]DFVNWLLAQKG-OH): the solubility reads like this: (pH 7.4) at least 15 mg/mL; (pH 7.4, aqueous buffer) at least 30 mg/mL. For `CC[C@H](C)[C@H](NC(=O)[C@H](CO)NC(=O)[C@H](Cc1ccc(O)cc1)NC(=O)[C@H](CC(=O)O)NC(=O)[C@H](CO)NC(=O)[C@@H](NC(=O)[C@H](Cc1ccccc1)NC(=O)[C@@H](NC(=O)CNC(=O)[C@H](CCC(=O)O)NC(=O)C(C)(C)NC(=O)[C@H](Cc1ccc(O)cc1)NC)[C@@H](C)O)[C@@H](C)CC)C(=O)N[C@@H](C)C(=O)N[C@@H](CC(C)C)C(=O)N[C@@H](CC(=O)O)C(=O)N[C@@H](CCCNC(=N)N)C(=O)NC(C)(C)C(=O)N[C@@H](C)C(=O)N[C@@H](CCC(N)=O)C(=O)NC(C)(C)C(=O)N[C@@H](CCCCNC(=O)COCCOCCNC(=O)COCCOCCNC(=O)CC[C@H](NC(=O)CC[C@H](NC(=O)CCCCCCCCCCCCCCCCC(=O)O)C(=O)O)C(=O)O)C(=O)N[C@@H](Cc1ccccc1)C(=O)N[C@H](C(=O)N[C@@H](CC(N)=O)C(=O)N[C@@H](Cc1c[nH]c2ccccc12)C(=O)N[C@@H](CC(C)C)C(=O)N[C@@H](CC(C)C)C(=O)N[C@@H](C)C(=O)N[C@@H](CCC(N)=O)C(=O)N[C@@H](CO)C(=O)N1CCC[C@H]1C(=O)NCC(=O)O)C(C)C` [Compound 86] (H-[NMeY][Aib]EGTFISDYSIALDR[Aib]AQ[Aib]K([AEEA-AEEA-γGlu-γGlu-C18 diacid])FVNWLLAQSPG-OH), in that order: at least 15 mg/mL and at least 30 mg/mL. Take `CC[C@H](C)[C@H](NC(=O)[C@H](CCCNC(=N)N)NC(=O)[C@H](CC(=O)O)NC(=O)[C@H](CCCCNC(=O)COCCOCCNC(=O)COCCOCCNC(=O)CC[C@H](NC(=O)CCCCCCCCCCCCCCCCC(=O)O)C(=O)O)NC(=O)[C@H](C)NC(=O)[C@@H](NC(=O)[C@H](CO)NC(=O)[C@H](Cc1ccc(O)cc1)NC(=O)[C@H](CC(=O)O)NC(=O)[C@H](CO)NC(=O)[C@@H](NC(=O)[C@H](Cc1ccccc1)NC(=O)[C@@H](NC(=O)CNC(=O)[C@H](CCC(=O)O)NC(=O)C(C)(C)NC(=O)[C@H](Cc1ccc(O)cc1)NC)[C@@H](C)O)[C@@H](C)CC)[C@@H](C)CC)C(=O)N[C@@H](C)C(=O)N[C@@H](CCC(N)=O)C(=O)NC(C)(C)C(=O)N[C@@H](CC(N)=O)C(=O)N[C@@H](Cc1ccccc1)C(=O)N[C@H](C(=O)N[C@@H](CC(N)=O)C(=O)N[C@@H](Cc1c[nH]c2ccccc12)C(=O)N[C@@H](CC(C)C)C(=O)N[C@@H](CC(C)C)C(=O)N[C@@H](C)C(=O)N[C@@H](CCC(N)=O)C(=O)N[C@@H](CCCNC(=N)N)C(N)=O)C(C)C` [Compound 252] (H-[NMeY][Aib]EGTFISDYSIAK([AEEA-AEEA-γGlu-C18 diacid])DRIAQ[Aib]NFVNWLLAQR-NH2): where the note is “pH 7.4, aqueous buffer”, the solubility was at least 7.3 mg/mL. On to `CC[C@H](C)[C@H](NC(=O)[C@H](Cc1ccccc1)NC(=O)[C@@H](NC(=O)CNC(=O)[C@H](CCC(=O)O)NC(=O)C(C)(C)NC(=O)[C@H](Cc1ccc(O)cc1)NC)[C@@H](C)O)C(=O)N[C@@H](CO)C(=O)N[C@@H](CC(=O)O)C(=O)N[C@@H](Cc1ccc(O)cc1)C(=O)N[C@@H](CO)C(=O)N[C@H](C(=O)NC(C)(C)C(=O)N[C@@H](CC(C)C)C(=O)N[C@@H](CC(=O)O)C(=O)N[C@@H](CCCNC(=N)N)C(=O)NC(C)(C)C(=O)N[C@@H](C)C(=O)N[C@@H](CCC(N)=O)C(=O)NC(C)(C)C(=O)N[C@@H](CCCCNC(=O)COCCOCCNC(=O)COCCOCCNC(=O)CC[C@H](NC(=O)CC[C@H](NC(=O)CCCCCCCCCCCCCCCCCCC(=O)O)C(=O)O)C(=O)O)C(=O)N[C@@H](Cc1ccccc1)C(=O)N[C@H](C(=O)N[C@@H](CC(N)=O)C(=O)N[C@@H](Cc1c[nH]c2ccccc12)C(=O)N[C@@H](CC(C)C)C(=O)N[C@@H](CC(C)C)C(=O)N[C@@H](C)C(=O)N[C@@H](CCC(N)=O)C(=O)N[C@@H](CCCNC(=N)N)C(=O)N1CCC[C@H]1C(=O)N[C@@H](CO)C(=O)N[C@@H](CO)C(=O)NCC(=O)N[C@@H](C)C(=O)N1CCC[C@H]1C(=O)N1CCC[C@H]1C(=O)N1CCC[C@H]1C(=O)N[C@@H](CO)C(N)=O)C(C)C)[C@@H](C)CC` [Compound 101] (H-[NMeY][Aib]EGTFISDYSI[Aib]LDR[Aib]AQ[Aib]K([AEEA-AEEA-γGlu-γGlu-C20 diacid])FVNWLLAQRPSSGAPPPS-NH2), for which the solubility is, setting by setting: (pH 7.4, aqueous buffer, pH 7.4 Phosphate Buffer - Solubility, 200 mM Phosphate buffer pH 7.4) at least 60 mg/mL; (pH 7.4, solubility in phosphate buffer at pH 7.4, 200 mM phosphate buffer pH 7.4) at least 15 mg/mL. Turning to `CC[C@H](C)[C@H](NC(=O)[C@H](CO)NC(=O)[C@H](Cc1ccc(O)cc1)NC(=O)[C@H](CC(=O)O)NC(=O)[C@H](CO)NC(=O)[C@@H](NC(=O)[C@H](Cc1ccccc1)NC(=O)[C@@H](NC(=O)CNC(=O)[C@H](CCC(=O)O)NC(=O)C(C)(C)NC(=O)[C@H](Cc1ccc(O)cc1)NC)[C@@H](C)O)[C@@H](C)CC)C(=O)N[C@@H](C)C(=O)N[C@@H](CC(C)C)C(=O)N[C@@H](CC(=O)O)C(=O)N[C@@H](CCCCN)C(=O)N[C@@H](C)C(=O)N[C@@H](C)C(=O)N[C@@H](CCC(N)=O)C(=O)NC(C)(C)C(=O)N[C@@H](CCCCNC(=O)COCCOCCNC(=O)COCCOCCNC(=O)CC[C@H](NC(=O)CC[C@H](NC(=O)CCCCCCCCCCCCCCCCC(=O)O)C(=O)O)C(=O)O)C(=O)N[C@@H](Cc1ccccc1)C(=O)N[C@H](C(=O)N[C@@H](CC(N)=O)C(=O)N[C@@H](Cc1c[nH]c2ccccc12)C(=O)N[C@@H](CC(C)C)C(=O)N[C@@H](CC(C)C)C(=O)N[C@@H](C)C(=O)N[C@@H](CCC(N)=O)C(=O)N[C@@H](CCCNC(=N)N)C(=O)NCC(=O)O)C(C)C` [Compound 176] (H-[NMeY][Aib]EGTFISDYSIALDKAAQ[Aib]K([AEEA-AEEA-γGlu-γGlu-C18 diacid])FVNWLLAQRG-OH), the solubility reads like this: (pH 7.4) at least 15 mg/mL; (pH 7.4, aqueous buffer) at least 30 mg/mL.

As usually defined, the solubility is the dissolved amount per volume that the medium holds. Higher therefore signals a readily soluble substance.
